Measured values taken from patent US7071218B2, “N-substituted heterocycles for the treatment of hypercholesteremia, dyslipidemia and other metabolic disorders; cancer, and other diseases” (Incyte San Diego Incorporated, priority 2001, dated 2006).

Experiments:
3T3-L1 cells = assay: 3T3-L1 adipocyte differentiation (lipid content), alone or with rosiglitazone (BRL49653); assay type: cell-based, mouse; details: 7 days of treatment; for lipid accumulation / differentiation of 3T3-L1 cells by the compound alone: 1e-10M to 1e-5M; for inhibition of adipocyte differentiation / lipid accumulation induced by rosiglitazone (BRL49653): in combination with rosiglitazone
Description: The mouse preadipocyte cell line 3T3-L1 has been extensively used to study adipocyte differentiation. Upon stimulation with differentiating agents, preadipocytes typically undergo one cell cycle expansion and then they are growth arrested and dramatically change their shape to become more rounded cells, loaded with lipids, in a fashion closely reflecting adipogenesis in vivo. In this well-known process of differentiation, peroxisome proliferator activated receptor gamma (PPARγ) and retinoid X receptor (RXR) play a key role. PPARγ binds as an obligatory heterodimer with RXR to specific responsive sequences in the promoter region of target genes. In the particular case of PPARγ/RXR heterodimers, both receptors can be activated via their specific ligands. As a consequence of such activation, adipocyte-specific genes are turned on (C/EBP, aP2, LPL, adipsin, etc) and adipocyte differentiation results. Because lipid accumulation is the endpoint of adipocyte differentiation, the quantification of lipids which have accumulated in cells upon treatment with the compound(s) of interest, will indicate the ability of that compound to trigger adipocyte differentiation. More importantly, the potency of that compound can be estimated as well based on the total amount of lipids accumulated. The amount of lipid measured at the end of the assay for each tested compound is here compared to that of Compound 73 at 0.1 μM, which is considered 100% (see FIG. 11A).
In the particular case of measuring the potential antagonistic activity of some compounds, the putative antagonist is combined together with an agonist (such as the PPARγ agonist BRL49653). Thus, the amount of lipids accumulated in response to BRL49653 (considered as 100% in this case), is decreased by the compound with antagonistic activity (see FIG. 11B).
Materials and Methods: Mouse embryo fibroblast 3T3-L1 cell line, from American Type Culture Collection (ATCC), was used as a model of adipocyte differentiation.
Growing medium (GM): DME Dulbecco's modified Eagle's medium containing 4500 mg/L glucose; 4 mM L-glutamine; 10 U/ml Pen-G; 10 mcg/ml and 10% Calf Serum (CS).
Differentiation medium (DM): DME Dulbecco's modified Eagle's medium containing 4500 mg/L glucose; 4 mM L-glutamine; 10 U/ml Pen-G; 10 mcg/ml and 10% Fetal Calf Serum (FCS). Cells are always kept at 10% CO2.
Cells were seeded at 3,000 cells/well in 96 well-tissue culture plates in growing medium.
Two days after reaching confluence, cells were treated with the different compounds of interest in DM (Day 0). Drugs were replaced every 2–3 days in DM. Differentiation was assessed after 7 days of treatment, by measuring the lipid content in the cells, using the Triglyceride (INFINITY) reagent (Quantitative assay). • Controls: All cells, including control cells (vehicle), are treated with the same volume of dimethyl sulfoxide (DMSO) never exceeding 0.1% final solvent concentration. As a positive control for differentiation, cells were treated with 10 μg insulin per ml and 2.5 μM dexamethasone (Ins/Dex).

AKT1/PKBα = target: T1, AKT1/PKBα (Homo sapiens, UniProt P31749); assay: In vitro assay for AKT1/PKBα kinase activity inhibition; assay type: biochemical; details: at 5 μM, pre-incubation 10 minute at 30° C.
T1 construct: purchased Upstate 14-276
T1 sequence (P31749 whole entry): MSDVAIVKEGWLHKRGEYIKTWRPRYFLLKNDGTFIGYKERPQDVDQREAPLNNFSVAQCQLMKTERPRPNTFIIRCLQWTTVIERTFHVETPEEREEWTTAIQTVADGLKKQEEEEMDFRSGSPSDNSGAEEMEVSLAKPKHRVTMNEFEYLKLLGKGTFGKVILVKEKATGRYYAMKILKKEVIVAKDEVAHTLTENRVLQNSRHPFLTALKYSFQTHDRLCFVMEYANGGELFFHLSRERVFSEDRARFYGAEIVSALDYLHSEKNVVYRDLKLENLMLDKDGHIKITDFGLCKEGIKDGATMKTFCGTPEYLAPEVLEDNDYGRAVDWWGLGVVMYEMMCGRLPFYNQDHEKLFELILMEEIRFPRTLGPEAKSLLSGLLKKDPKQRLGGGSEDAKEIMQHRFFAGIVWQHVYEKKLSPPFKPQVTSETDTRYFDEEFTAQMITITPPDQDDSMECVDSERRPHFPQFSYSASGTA
Procedure: The assay was performed using a similar approach as described by Standaert, Mary L., et al. J. Biol. Chem. 1999, 274, 25308–25316; and Aman, M. J. et al, J. Biol. Chem. 1998, 273, 33922–33928. The assay was performed using purified recombinant His-tagged AKT1/PKBα enzyme purchased from Upstate catalog # 14-276 following the manufacturer instruction. The assay is to measure phosphotransferase activity in purified His-tagged AKT1/PKBα. The purified enzyme is used to transfer the γ phosphate of [γ-32P]-ATP to a specific substrate, AKT/GSK peptide [RPRAATA] (upstate Catalog # 12-340). The phosphorylated substrate is then separated from the residual [γ-32P]ATP by using P81 phosphocellulose paper accompanied with extensive washing followed by quantitation using scintillation counter. The assay is linear for incubation times for up to 30 minutes and incorporation of up to 20% of total ATP. This enzyme assay is rapid, convenient and specific for AKT/PKB.
For testing the effect of Compound 2 on the AKT kinase activity, 0.3 μg AKT was pre-incubated with 1 μl of different Compound 2 stock concentration to give the final indicated concentration in total volume of 20 μl reaction buffer. As control 0.3 μg AKT was incubated with 1 μl Vehicle or alone in total volume of 20 μl reaction buffer. After a 10 minute incubation at 30° C., the kinase reaction was carried out according to the instruction of the manufacturer.

LXR = assay: In vitro transactivation assay in CV-1 cells, antagonism of T0901317-induced Gal-LXR activation; assay type: cell-based; details: with 1 μM agonist T0901317
Description: (§1) In vitro screens such as the transactivation assay can be used to measure the ability of a compound to inhibit a nuclear receptor regulating lipid or carbohydrate uptake, synthesis or metabolism. In the assay described herein compounds can be identified that can inhibit activation of the following nuclear receptors: LXR, PPARα, PPARγ and FXR. This activity can be useful to treat lipid disorders such as hypercholesteremia and obesity.
(§2) Cell line: Kidney Green Monkey CV-1 cells.
(§3) Growing culturing medium: Dulbecco's modified Eagle's medium (DMEM) supplememnted with 10% fetal calf serum (FCS).
(§4) Procedure: CV-1 cells were plated in 48 well-plate culture plates, at a density of 10,000 cells/well, 24 h prior to transfection. One to three hours before transfection, cells were fed with fresh medium. A modified calcium phosphate precipitation procedure was used for transient transfection (Pfahl, M. et al., 1990, Methods in Enzymology 189: 256).
(§5) Typically, 40 ng reporter plasmid and 20 ng of each receptor expression vector were mixed, together with 10 ng of β-galactosidase control plasmid (pCH110, Pharmacia, Piscataway, N.J.) and Bluescript plasmid to obtain a total of 400 ng DNA per well. To this mixture 1 μl of 2.5M CaCl2 and 10 μl of BBS buffer, pH 6.95, were added afterward. […]

PPARγ = target: T2, PPARγ (Homo sapiens, UniProt P37231); assay: In vitro transactivation assay in CV-1 cells, antagonism of BRL49653-induced Gal-PPARγ activation; assay type: cell-based; details: with 1 μM agonist BRL49653, dose-dependent
T2 construct: expressed in transfected cells; host or cells: CV-1 (green monkey kidney) cells, transient calcium phosphate transfection
T2 sequence (P37231 238-503 limits assumed): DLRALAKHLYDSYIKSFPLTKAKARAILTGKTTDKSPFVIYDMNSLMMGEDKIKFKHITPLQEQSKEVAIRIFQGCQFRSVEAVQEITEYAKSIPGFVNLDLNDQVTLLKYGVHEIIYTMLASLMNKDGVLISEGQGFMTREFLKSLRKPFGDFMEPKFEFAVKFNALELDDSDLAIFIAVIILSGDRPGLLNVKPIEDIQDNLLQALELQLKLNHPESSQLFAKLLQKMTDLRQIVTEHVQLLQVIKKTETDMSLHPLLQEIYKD
Description: as §1, §2, §3, §4, §5

COc1ccc(/C=C2\SC(=S)N(CC(=O)O)C2=O)cc1-c1cc2c(cc1C)C(C)(C)CCC2(C)C [Compound 1, {5-[4-Methoxy-3-(3,5,5,8,8-pentamethyl-5,6,7,8-tetrahydro-naphthalen-2-yl)-benzylidene]-4-oxo-2-thioxo-thiazolidin-3-yl}-acetic acid]
lipid accumulation / differentiation of 3T3-L1 cells by the compound alone (3T3-L1 cells): lacked that ability
inhibition of adipocyte differentiation / lipid accumulation induced by rosiglitazone (BRL49653) (3T3-L1 cells): potently inhibited

Cc1cc2c(cc1-c1cc(/C=C3\SC(=S)N(CC(=O)O)C3=O)ccc1OC(F)(F)F)C(C)(C)CCC2(C)C [Compound 2, {5-[4-Trifluoromethoxy-3-(3,5,5,8,8-pentamethyl-5,6,7,8-tetrahydronaphthalen-2-yl)-benzylidene]-4-oxo-2-thioxo-thiazolidin-3-yl}-acetic acid]
inhibition of AKT activity compared to Control or Vehicle (AKT1/PKBα): showed inhibition
lipid accumulation / differentiation of 3T3-L1 cells by the compound alone (3T3-L1 cells): lacked that ability
inhibition of adipocyte differentiation / lipid accumulation induced by rosiglitazone (BRL49653) (3T3-L1 cells): potently inhibited

COc1ncc(/C=C2\SC(=S)N(CC(=O)O)C2=O)cc1-c1cc2c(cc1C)C(C)(C)CCC2(C)C [Compound 3, {5-[6-Methoxy-5-(3,5,5,8,8-pentamethyl-5,6,7,8-tetrahydro-naphthalen-2-yl)-pyridin-3-ylmethylene]-4-oxo-2-thioxo-thiazolidin-3-yl}-acetic acid]
inhibition of AKT activity compared to Control or Vehicle (AKT1/PKBα): showed inhibition

COc1ccc(/C=C2\SC(=O)N(CCc3ccccn3)C2=O)cc1-c1cc2c(cc1C)C(C)(C)CCC2(C)C [Compound 6, 5-[4-Methoxy-3-(3,5,5,8,8-pentamethyl-5,6,7,8-tetrahydro-naphthalen-2-yl)-benzylidene]-3-(2-pyridin-2-yl-ethyl)-thiazolidine-2,4-dione]
melting point: 170 to 171 °C

COc1cc2c(cc1-c1c(/C=C3\SC(=S)N(CC(=O)O)C3=O)cc(-c3ccccc3)cc1OC)C(C)(C)CCC2(C)C [Compound 8, {5-[5-Phenyl-3-methoxy-2-(3-methoxy-5,5,8,8-tetramethyl-5,6,7,8-tetrahydro-naphthalen-2-yl)-benzylidene]-4-oxo-2-thioxo-thiazolidin-3-yl}-acetic acid]
antagonism of T0901317-induced LXR activation (in words) (LXR): only antagonize the activation activity of BRL49653 for PPARγ
lipid accumulation / differentiation of 3T3-L1 cells by the compound alone (3T3-L1 cells): lacked the ability to differentiate 3T3-L1 cells by themselves
inhibition of adipocyte differentiation / lipid accumulation induced by rosiglitazone (BRL49653) (3T3-L1 cells): strongly inhibited
inhibition at 10 µM (PPARγ): 80 to 90%

CN(C)c1ccc(/C=C2\SC(=S)N(CC(=O)O)C2=O)cc1-c1cc2c(cc1N(C)C)C(C)(C)CCC2(C)C [Compound 10, {5-[4-Dimethylamino-3-(3-dimethylamino-5,5,8,8-tetramethyl-5,6,7,8-tetrahydro-naphthalen-2-yl)-benzylidene]-4-oxo-2-thioxo-thiazolidin-3-yl}-acetic acid]
inhibition of AKT activity compared to Control or Vehicle (AKT1/PKBα): showed inhibition

CCOc1ccc(-c2ccc(OC)c(C(C)(C)C)c2)cc1/C=C1\SC(=S)N(CC(=O)O)C1=O [Compound 67]
inhibition of AKT activity compared to Control or Vehicle (AKT1/PKBα): showed inhibition

COc1ccc(/C=C2\SC(=S)NC2=O)cc1-c1cc2c(cc1C)C(C)(C)CCC2(C)C [Compound 71, reference compound]
lipid accumulation / differentiation of 3T3-L1 cells by the compound alone (3T3-L1 cells): induced lipid accumulation

COc1cc2c(cc1-c1c(/C=C3\SC(=S)N(CC(=O)O)C3=O)cc(-c3ccccc3)cc1OC)C(C)(C)CCC2(C)C [Compound 72, reference compound]
lipid accumulation / differentiation of 3T3-L1 cells by the compound alone (3T3-L1 cells): induced lipid accumulation
